The record followed here is US20250154123A1, “COOLING COMPOUNDS AND COMPOSITIONS” (V. MANE FILS, priority 2022, published 2025).

A short description of experiment [1]: Chewing gum evaluation protocol, cooling intensity rated 0-10 by 6 trained panelists over 10 min. The experiment is classed as in vivo, human. Conditions: 0.20 wt % in chewing gum, chewed 10 min, 6 panelists. On the procedure:
An unflavored chewing gum paste was prepared using the following formulation: Sorbitol (52.4 wt %), gum base (30.0 wt %), maltitol syrup (7.0 wt %), glycerine (5.0 wt %), mannitol (5.0 wt %), soy lecithin (0.4 wt %), acesulfame-K (0.1 wt %), and aspartame (0.1 wt %). The paste was warmed 1-2 min using a micro-wave to soften the mixture. After adding the cooling agent (0.20 wt % Compound 1), the paste was kneaded to homogenise the product. Then the paste is stretched using a sheeter, flatted at 2 mm thick, and cut in regular rectangular pieces (12×42 mm). Chewing-gums pieces are packed in plastic bag and put 1 week at room temperature to let them stabilise. Comparative chewing gum samples (A-C) were also prepared using 0.26 wt % PHYSCOOL™; 0.21 wt % WS-3™; and 0.17 wt % WS-23™, respectively.
A chewing gum evaluation protocol was performed by 6 trained panelists, where the chewing gum was chewed for 10 min while holding the panelist's mouth closed. The cooling intensity was rated from 0 (not perceived) to 10 (very intense) at 5 sec, 15 sec, 30 sec, 45 sec, 1 min, 1.5 min, 2 min, and then every minute until 10 minutes.

Experiment [2] in a line: Organoleptic evaluation in still water by a trained panel (cooling intensity over time). The format is in vivo, human. The source says: Inventive compounds 1, 2 and 5 were organoleptically evaluated in still water by a trained panel. […] […] These inventive compounds appear to behave similarly to the comparative compounds.
Experiment [3] has as its target T1, hTRPM8 (Homo sapiens, UniProt Q7Z2W7).
T1 construct: expressed in transfected cells; host or cells: CHO-KJ cells [sic]
Nature of the experiment: Secondary in vitro screening on hTRPM8 at 5 μM versus WS-3. The experiment is classed as cell-based. Conditions: WS3 as reference compound. Here is the method:
(§1) The compounds were evaluated in vitro on CHO-KJ cells expressing the gene encoding the hTRPM8 ion channel (Table 1). Channel activation is determined by fluorometric measurement of […] calcium using FLUO-8. The activity of the compounds was measured relative to icilin (known hTRPM8 agonist).
The compounds 1 to 40 were tested on hTRPM8 at 5 μM using WS3 as the reference compound (Table 2).

The target in a further experiment is T2, hTRPM8 ion channel (Homo sapiens, UniProt Q7Z2W7).
T2 construct: expressed in transfected cells; host or cells: CHO-KJ cells [sic]
In words: Primary in vitro screening on hTRPM8 (CHO-KJ cells, FLUO-8 calcium fluorometry, relative to icilin). The experiment is classed as cell-based. Particulars: for % activation vs iciline: CHO-KJ cells expressing hTRPM8; for activation on hTRPM8 compared with comparative molecules (Physcool, WS-5, WS-3, l-isopulegol, l-menthol, menthyl lactate): primary screening, Table 1. On the procedure: as §1

The target of experiment [4] is T1, hTRPM8. In words: EC50 measurement on hTRPM8 (response curve). The format is cell-based. Conditions: for EC50 on hTRPM8 compared with WS-3 and WS-5: Table 3; for EC50: hTRPM8, response curve. On the procedure: as §1
A response curve was developed for compounds 1, 3, 5 and 37 which made it possible to determine the EC50 (half maximal effective concentration) values on hTRPM8 and compare them with the EC50 values of the comparative compounds (Table 3).

By EC50 is commonly meant the concentration that produces a half-maximal response. A lower EC50 goes with an effect from little substance.

T1 sequence (Q7Z2W7 whole entry): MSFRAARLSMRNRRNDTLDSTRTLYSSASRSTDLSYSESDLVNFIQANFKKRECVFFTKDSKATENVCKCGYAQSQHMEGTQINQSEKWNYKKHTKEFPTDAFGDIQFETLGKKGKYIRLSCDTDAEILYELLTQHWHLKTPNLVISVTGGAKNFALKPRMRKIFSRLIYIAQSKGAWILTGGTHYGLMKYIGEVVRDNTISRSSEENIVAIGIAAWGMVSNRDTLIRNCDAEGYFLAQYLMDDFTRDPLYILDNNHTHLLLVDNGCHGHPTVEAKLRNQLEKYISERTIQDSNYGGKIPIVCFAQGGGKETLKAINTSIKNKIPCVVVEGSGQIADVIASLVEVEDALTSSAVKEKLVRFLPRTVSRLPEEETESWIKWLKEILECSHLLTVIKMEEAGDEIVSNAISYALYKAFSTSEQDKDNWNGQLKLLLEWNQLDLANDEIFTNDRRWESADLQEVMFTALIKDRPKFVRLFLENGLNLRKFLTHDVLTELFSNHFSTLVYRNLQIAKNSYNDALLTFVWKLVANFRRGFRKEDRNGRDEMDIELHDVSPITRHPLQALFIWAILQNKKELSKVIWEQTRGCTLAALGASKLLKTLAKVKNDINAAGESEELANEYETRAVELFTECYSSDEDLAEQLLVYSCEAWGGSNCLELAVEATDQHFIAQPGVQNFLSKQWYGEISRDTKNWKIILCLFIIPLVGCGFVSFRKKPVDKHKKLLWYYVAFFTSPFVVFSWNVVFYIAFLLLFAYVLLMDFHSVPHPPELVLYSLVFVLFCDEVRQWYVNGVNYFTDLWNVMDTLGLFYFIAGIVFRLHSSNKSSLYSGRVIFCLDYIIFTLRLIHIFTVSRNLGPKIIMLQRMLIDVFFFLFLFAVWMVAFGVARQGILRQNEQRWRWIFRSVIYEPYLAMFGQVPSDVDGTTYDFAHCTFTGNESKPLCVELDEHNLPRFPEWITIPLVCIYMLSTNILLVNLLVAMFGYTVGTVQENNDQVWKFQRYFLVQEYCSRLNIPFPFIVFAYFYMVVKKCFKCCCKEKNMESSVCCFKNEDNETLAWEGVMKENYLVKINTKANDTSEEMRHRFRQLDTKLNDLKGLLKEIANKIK
T2 sequence (Q7Z2W7 whole entry): as above

On to `CC(C)[C@@H]1CC[C@@H](C)CC1(CO)CO` [Compound 1, ((2S,5R)-2-isopropyl-5-methylcyclohexane-1,1-diyl)dimethanol], for which the “duration of cooling intensity in chewing gum, similar to WS-3 (0.21 wt %) and WS-23 (0.17 wt %)” value in experiment [1] is recorded as “long cooling intensity out to 10 minutes”. Besides, in experiment [1] (average), the “cooling intensity and duration in chewing gum versus Comparative Sample A (0.26 wt % PHYSCOOL)” value was “more initial cooling intensity and longer lasting duration than Comparative Sample A”. Moreover, in experiment [2] (equimolar, larger panel, over 10 min, FIG. 3), the “cooling effect versus Physcool” value is given as “persistent cooling effect similar to Physcool® but with a greater intensity”. The “freshness in the mouth” value in experiment [2] (still water, trained panel) was “freshness in the mouth with both an attack and a good persistence”. Further, the activation at 5 µM on hTRPM8 [3] was found to be 99%. On hTRPM8 ion channel (concentration 156 μM), the “% activation vs iciline” value stood at 199%. Also, the “activation on hTRPM8 compared with comparative molecules (Physcool, WS-5, WS-3, l-isopulegol, l-menthol, menthyl lactate)” value on hTRPM8 ion channel is “greater activations than the comparative molecules”. For the same compound, at hTRPM8 [4], the “EC50 on hTRPM8 compared with WS-3 and WS-5” value is “EC50 values lower than WS-3™ and similar to WS-5™”; the EC50 turned out to be 4.6 µM.
For `CC(C)[C@@H]1CC[C@@H](C)CC12COC(C)(C)OC2` [Compound 3, (7S,1OR)-7-isopropyl-3,3,10-trimethyl-2,4-dioxaspiro[5.5]undecane], the activation at 5 µM at hTRPM8 [3] was determined as 94%. Besides, on hTRPM8 ion channel (concentration 104 μM), the “% activation vs iciline” value is recorded as 99%. The “activation on hTRPM8 compared with comparative molecules (Physcool, WS-5, WS-3, l-isopulegol, l-menthol, menthyl lactate)” value on hTRPM8 ion channel is “greater activations than the comparative molecules”. Besides, at hTRPM8 [4], the “EC50 on hTRPM8 compared with WS-3 and WS-5” value is “EC50 values lower than WS-3™ and similar to WS-5™”; the EC50 turned out to be 2.5 µM.
`COc1cc(C2OCC3(CO2)C[C@H](C)CC[C@H]3C(C)C)ccc1O` (stereo partly drawn) [Compound 5, 4-((7S,10R)-7-isopropyl-10-methyl-2,4-dioxaspiro[5.5]undecan-3-yl)-2-methoxyphenol] yielded an activation at 5 µM on hTRPM8 [3] of 16%. The “% activation vs iciline” value at hTRPM8 ion channel (concentration 96 μM) is given as 176%. Moreover, the “activation on hTRPM8 compared with comparative molecules (Physcool, WS-5, WS-3, l-isopulegol, l-menthol, menthyl lactate)” value on hTRPM8 ion channel is “greater activations than the comparative molecules”. On hTRPM8 [4], this compound returned an EC50 of 39 µM.
